Data: US9718790B2, “Triazine derivative and pharmaceutical composition having an analgesic activity comprising the same” (SHIONOGI & CO., LTD., priority 2010, dated 2017)

Legend:
rat model of cystitis = assay: Evaluation of the urinary function in a rat model of cystitis (acetic acid infusion, cystometry); format: in vivo; conditions: oral administration of 30 mg/kg
From the text: A rat was fixed in the supine position after being given anesthesia through the inhalation of 2% isoflurane (Anesthetic background: Nitrous oxide: Oxygen=7:3). A midline incision was made in its abdomen to expose the bladder. A cannula (made by) processing a polyethylene tube (PE-50: Becton Dickinson)) was inserted through a small incision on top of the bladder and fixed to create a bladder fistula. The other end of the cannula was led through the hypodermal tissue to the back, and the muscular coat and skin were sutured. The cannula, which was led to the back, was protected with a stainless spring in the middle and connected to the cannula swivel. […]
Three days after the acetic acid infusion, the other end of the cannula inserted into the bladder was connected to a T shape stopcock and then the intravesical pressure was recorded continuously using a pressure amplifier while infusing warmed normal saline solution at a rate of 3.0 mL/hr from one side and through a pressure transducer on the other side. The baseline of the intravesical pressure was measured (for approximately 40 minutes) after a measurement for stable duration (for approximately 20 minutes). After that, a vehicle, positive control compound or test compound wore administered, and the value after administration was measured for approximately 120 minutes. […]

[1] = test system: partial sciatic nerve ligation model in rats; assay: Analgesic effect in a Seltzer model, Evaluation (2): mechanical hyperalgesia, analgesy meter paw pressure test; format: in vivo; conditions: rat, oral administration, 10 mg/kg, at 3 hours
From the text: Rats were anaesthetized using isoflurane/O2 inhalation anaesthesia. After induction of anesthesia, the left thigh was shaved. An incision was made in the skin just below the hip bone. The muscle was bluntly dissected to expose the sciatic nerve. One third (⅓) to one half (½) of the sciatic nerve thickness was tightly ligated and the wound was closed. The right thigh is used as a sham-operated control. The right thigh undergoes an identical procedure with the left hind limb, however, the sciatic nerve is not manipulated or ligated.
Mechanical hyperalgesia was eavaluated using an analgesy meter. Two weeks after nerve ligation, the paw pressure test was performed using an analgesy meter (stimulus pressure increased 16 g per second) to obtain paw withdrawal thresholds (PWT). Measurements were made on both sides of the hind paw and to obtain pre-dose PWT. The rats showing the threshold change from 60 to 90 g (in nerve ligated side) and 100 to 175 g (in sham operated side) were used in the experiments. On the day before the experiment, the rats have their hind paws set on the apparatus to familiarize them with the test procedure. […] Post-dose PWT of the right and left hind paws were measured at approximately 1 to 5 hours after drug administration. Percent reversal of mechanical hyperalgesia for each rat was calculated using the following formula. […]

## CC(C)Oc1ccc(Nc2nc(=O)n(CC(C)(C)C(=O)O)c(=O)n2Cc2ccc(Cl)cc2)cc1F [Compound I-0364]
Rat model of cystitis
  improvements in the urinary function in the voided volume per urination: 88%
  improvements in the urinary function in the voiding interval: 74.8%
[1]
  analgesic effect, percent reversal of mechanical hyperalgesia: 56.7 % reversal
